Assay results published in patent US11072624B2, “Synthesis of nucleoside 5′-triphosphates and their derivatives” (priority 2010, dated 2021).

Molecular target: T1, Klenow fragment exo(−), Kf- (Escherichia coli, UniProt P00582, D355A/E357A)
T1 construct: into DNA by Klenow fragment exo(−), Kf-
Assay: Primer extension reaction of chemically synthesized dNTPs into DNA by Klenow polymerase
Assay type: biochemical
Conditions: single test dNTP plus the three other standard dNTPs (lanes 4, 6, 8, 10); 0.1 mM dNTPs, 37° C., 1 h, 19% PAGE
Procedure: Primer, P was end labeled using polynucleotide kinase and [γ-^32P] ATP. Polymerization reactions were performed with 3.5 μM primer and 5 μM template and equimolar ratios of all dNTPs (0.1 mM) and incubated with 0.05 […] at 37° C. for 1 h. Reaction was analyzed by 19% polyacrylamide gel electrophoresis. Lane 1: primer, P and all dNTPs but no Kf-; lane 2: P plus template, T and all dNTPs (Epicentre, Inc.) with Kf-; lane 3: P/T and all dNTPs except dATP with Kf-; lane 4: P/T and test dATP, dCTP, dGTP, and TTP with Kf-; lane 5: P/T and all dNTPs except dCTP with Kf-; lane 6: P/T and dATP, test dCTP, dGTP and TTP with Kf-; lane 7: P/T and all dNTPs except dGTP with Kf-; lane 8: P/T and dATP, dCTP, test dGTP and TTP with Kf-; lane 9: P/T and all dNTPs except TTP with Kf-; lane 10: P/T and dATP, dCTP, dGTP and test TTP with Kf-; lane 11: P/T and all test dNTPs with Kf-; lane 12: primer, P.
For the polymerase extension reaction, the primer (SEQ ID NO: 1; P: 5′-d-GCGTAATACGACTCACTATAG-3′) was radiolabeled with [γ-^32P] ATP at the 5′-position and incubated with the template (SEQ ID NO: 2; 3′-d-[…]-5′) to allow examination of a test nucleotide (dATP, dCTP, dGTP or TTP), see FIG. 3. The polymerase reaction was conducted in the presence of the Klenow polymerase (0.05 U/μL). […] More convincingly, in a reaction containing each of the test triphosphates (lane 11), full-length product (SEQ ID NO: 3) similar to the standard polymerization reaction (lane 2) was observed.

T1 sequence (P00582 324-928 D355A/E357A): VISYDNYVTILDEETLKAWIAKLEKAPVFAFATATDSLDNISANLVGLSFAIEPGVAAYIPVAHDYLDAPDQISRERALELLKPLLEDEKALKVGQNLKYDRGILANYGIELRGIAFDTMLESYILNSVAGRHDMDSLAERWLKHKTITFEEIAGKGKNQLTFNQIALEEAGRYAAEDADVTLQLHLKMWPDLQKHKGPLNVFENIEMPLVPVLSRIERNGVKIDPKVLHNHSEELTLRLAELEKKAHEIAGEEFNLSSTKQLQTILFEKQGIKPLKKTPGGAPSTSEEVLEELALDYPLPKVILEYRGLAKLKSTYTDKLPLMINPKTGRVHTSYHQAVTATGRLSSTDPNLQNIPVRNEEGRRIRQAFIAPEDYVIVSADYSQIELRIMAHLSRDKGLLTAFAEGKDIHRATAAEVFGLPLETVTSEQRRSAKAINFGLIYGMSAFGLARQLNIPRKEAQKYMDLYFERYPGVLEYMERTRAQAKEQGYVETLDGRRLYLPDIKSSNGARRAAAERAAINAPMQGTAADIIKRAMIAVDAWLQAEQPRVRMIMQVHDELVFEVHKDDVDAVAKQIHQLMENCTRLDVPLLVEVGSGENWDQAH

Cc1cn([C@H]2C[C@H](O)[C@@H](COP(=O)(O)OP(=O)(O)OP(=O)(O)O)O2)c(=O)[nH]c1=O [TTP]
primer extension to the expected full-length (test dNTP as substrate for the Klenow polymerase): efficiently extended the primer

Nc1ncnc2c1ncn2[C@H]1C[C@H](O)[C@@H](COP(=O)(O)OP(=O)(O)OP(=O)(O)O)O1 [dATP]
primer extension to the expected full-length (test dNTP as substrate for the Klenow polymerase): efficiently extended the primer

Nc1ccn([C@H]2C[C@H](O)[C@@H](COP(=O)(O)OP(=O)(O)OP(=O)(O)O)O2)c(=O)n1 [dCTP]
primer extension to the expected full-length (test dNTP as substrate for the Klenow polymerase): efficiently extended the primer

Nc1nc2c(ncn2[C@H]2C[C@H](O)[C@@H](COP(=O)(O)OP(=O)(O)OP(=O)(O)O)O2)c(=O)[nH]1 [dGTP]
primer extension to the expected full-length (test dNTP as substrate for the Klenow polymerase): efficiently extended the primer
